The source made the active and inactive calls. The calls are words filed in the database; no cut-off is given here.
What was measured:
Homo sapiens [1] = species: Homo sapiens; assay: Activation of Luc-fused NFkB (unknown origin) expressed in non-stimulated human THP1 cells assessed as relative luminescence unit at 10^-6 M after 24 hrs by luciferase reporter gene assay (reference value: 100%); format: cell-based
Homo sapiens [2] = species: Homo sapiens; assay: Activation of Luc-fused NFkB (unknown origin) expressed in non-stimulated human THP1 cells assessed as relative luminescence unit at 10^-12 M after 24 hrs by luciferase reporter gene assay (reference value: 100%); format: cell-based
Homo sapiens [3] = species: Homo sapiens; assay: Activation of Luc-fused NFkB (unknown origin) expressed in non-stimulated human THP1 cells assessed as relative luminescence unit at 10^-11 M after 24 hrs by luciferase reporter gene assay (reference value: 100%); format: cell-based
THP-1 [4] = assay: Cytotoxicity against human THP1 cells harboring NFkB-Luc assessed as LDH release at 10'8 M after 24 hrs by spectrophotometric method relative to control; format: cell-based; conditions: thp-1, 24 h
THP-1 [5] = assay: Cytotoxicity against human THP1 cells harboring NFkB-Luc assessed as LDH release at 10'12 M after 24 hrs by spectrophotometric method relative to control; format: cell-based; conditions: thp-1, 24 h
THP-1 [6] = assay: Cytotoxicity against human THP1 cells harboring NFkB-Luc assessed as LDH release at 10'9 M after 24 hrs by spectrophotometric method relative to control; format: cell-based; conditions: thp-1, 24 h
Homo sapiens [7] = species: Homo sapiens; assay: Activation of Luc-fused NFkB (unknown origin) expressed in non-stimulated human THP1 cells assessed as relative luminescence unit at 10^-10 M after 24 hrs by luciferase reporter gene assay (reference value: 100%); format: cell-based
[8] = target: T1, N-formyl peptide receptor 2 (Homo sapiens, UniProt P25090); assay: Agonist activity at ALX/FPR2 in human THP1 cells harboring NF-kB-Luc assessed as inhibition of LPS-induced NFkB signalling activation pretreated for 30 mins followed by LPS stimulation for 24 hrs by luciferase reporter gene assay; format: cell-based
T1 sequence (P25090 whole entry): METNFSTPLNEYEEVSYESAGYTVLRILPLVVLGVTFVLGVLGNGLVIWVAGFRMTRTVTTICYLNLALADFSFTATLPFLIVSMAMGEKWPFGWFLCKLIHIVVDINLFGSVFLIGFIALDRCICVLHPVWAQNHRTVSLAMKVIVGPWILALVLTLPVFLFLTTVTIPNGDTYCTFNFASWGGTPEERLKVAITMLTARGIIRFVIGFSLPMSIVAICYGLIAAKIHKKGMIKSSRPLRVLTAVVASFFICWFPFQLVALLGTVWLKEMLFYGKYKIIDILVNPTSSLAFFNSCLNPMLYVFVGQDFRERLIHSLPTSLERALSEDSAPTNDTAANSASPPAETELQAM

[9] = target: T1, N-formyl peptide receptor 2; assay: Agonist activity at ALX/FPR2 in human THP1 cells harboring NF-kB-Luc assessed as inhibition of LPS-induced NFkB signalling activation by measuring reduction in IL-12p70 secretion pretreated for 30 mins followed by LPS stimulation for 24 hrs by electrochemiluminescence assay; format: cell-based
THP-1 [10] = assay: Cytotoxicity against human THP1 cells harboring NFkB-Luc assessed as LDH release at 10'7 M after 24 hrs by spectrophotometric method relative to control; format: cell-based; conditions: thp-1, 24 h
HEK293 = assay: Induction of intracellular calcium accumulation in HEK293 cells at 0.01 nM to 100 nM by Fluo-4 dye based fluorescence spectrophotometric assay; format: functional, cell-based; conditions: Homo sapiens
Homo sapiens [11] = species: Homo sapiens; assay: Activation of Luc-fused NFkB (unknown origin) expressed in non-stimulated human THP1 cells assessed as relative luminescence unit at 10^-8 M after 24 hrs by luciferase reporter gene assay (reference value: 100%); format: cell-based
[12] = target: T1, N-formyl peptide receptor 2; assay: Agonist activity at ALX/FPR2 in human THP1 cells harboring NF-kB-Luc assessed as inhibition of LPS-induced NFkB signalling activation by measuring reduction in TNFalpha secretion pretreated for 30 mins followed by LPS stimulation for 24 hrs by electrochemiluminescence assay; format: cell-based
Homo sapiens [13] = species: Homo sapiens; assay: Activation of Luc-fused NFkB (unknown origin) expressed in non-stimulated human THP1 cells assessed as relative luminescence unit at 10^-9 M after 24 hrs by luciferase reporter gene assay (reference value: 100%); format: cell-based
[14] = target: T1, N-formyl peptide receptor 2; assay: Agonist activity at ALX/FPR2 in human THP1 cells harboring NF-kB-Luc assessed as inhibition of LPS-induced NFkB signalling activation by measuring reduction in IL-6 secretion pretreated for 30 mins followed by LPS stimulation for 24 hrs by electrochemiluminescence assay; format: cell-based
[15] = target: T1, N-formyl peptide receptor 2; assay: Agonist activity at ALX/FPR2 in human THP1 cells harboring NF-kB-Luc assessed as inhibition of LPS-induced NFkB signalling activation by measuring reduction in IFNgamma secretion pretreated for 30 mins followed by LPS stimulation for 24 hrs by electrochemiluminescence assay; format: cell-based
[16] = target: T1, N-formyl peptide receptor 2; assay: Agonist activity at ALX/FPR2 in human THP1 cells harboring NF-kB-Luc assessed as inhibition of LPS-induced NFkB signalling activation by measuring reduction in IL-1beta secretion pretreated for 30 mins followed by LPS stimulation for 24 hrs by electrochemiluminescence assay; format: cell-based
Homo sapiens [17] = species: Homo sapiens; assay: Activation of Luc-fused NFkB (unknown origin) expressed in non-stimulated human THP1 cells assessed as relative luminescence unit at 10^-7 M after 24 hrs by luciferase reporter gene assay (reference value: 100%); format: cell-based
THP-1 [18] = assay: Cytotoxicity against human THP1 cells harboring NFkB-Luc assessed as LDH release at 10'6 M after 24 hrs by spectrophotometric method relative to control; format: cell-based; conditions: thp-1, 24 h
THP-1 [19] = assay: Cytotoxicity against human THP1 cells harboring NFkB-Luc assessed as LDH release at 10'10 M after 24 hrs by spectrophotometric method relative to control; format: cell-based; conditions: thp-1, 24 h
THP-1 [20] = assay: Cytotoxicity against human THP1 cells harboring NFkB-Luc assessed as LDH release at 10'11 M after 24 hrs by spectrophotometric method relative to control; format: cell-based; conditions: thp-1, 24 h

IC50 [8]	IC50 ([9]; read-out: IC50)	IC50 ([12]; read-out: IC50)	IC50 ([14]; read-out: IC50)	IC50 ([15]; read-out: IC50)	IC50 ([16]; read-out: IC50)	IC50 [15]	IC50 [16]	IC50 [12]	IC50 [14]	SMILES	Activity (Homo sapiens [1])	Activity (Homo sapiens [2])	Activity (Homo sapiens [3])	Activity (Homo sapiens [7])	Activity (Homo sapiens [11])	Activity (Homo sapiens [13])	Activity (Homo sapiens [17])	also measured
69.6 nM	5.1 nM	6.7 nM	31.4 nM	2.5 nM	3.2 nM	–	–	–	–	CCCCC[C@H](O)c1nc(-c2ccccc2)oc1/C=C/[C@@H](O)[C@@H](O)CCCC(=O)OC(C)C	6.1%	6.2%	4.5%	6.2%	4.3%	5.3%	4%	fold change (FC) (THP-1 [4]): 1; fold change (FC) (THP-1 [5]): 1.1; fold change (FC) (THP-1 [6]): 0.9; fold change (FC) (THP-1 [10]): 1; Activity (HEK293): inactive; fold change (FC) (THP-1 [18]): 1; fold change (FC) (THP-1 [19]): 1; fold change (FC) (THP-1 [20]): 1.1
37.3 nM	–	6.5 nM	6.8 nM	–	–	Not Active	Not Active	–	–	CCCCC[C@@H](O)c1nc(-c2ccccc2)oc1/C=C/[C@@H](O)[C@@H](O)CCCC(=O)OC(C)C	2.7%	3.4%	2.8%	3.2%	2.6%	2.7%	3%	IC50 [9]: Not Active
25.3 nM	0.1 nM	3.4 nM	60.6 nM	2.2 nM	2.6 nM	–	–	–	–	CCCCC[C@H](O)c1c(/C=C/[C@@H](O)[C@@H](O)CCCC(=O)OC)nc(C)n1C	5.5%	5.2%	4.4%	8.9%	–	4.6%	3.7%	–

More lines, now with the values behind:

SMILES	IC50 [8]	IC50 ([9]; read-out: IC50)	IC50 ([12]; read-out: IC50)	IC50 ([14]; read-out: IC50)	IC50 ([15]; read-out: IC50)	IC50 ([16]; read-out: IC50)	IC50 [15]	IC50 [16]	IC50 [12]	IC50 [14]	Activity (Homo sapiens [1])	Activity (Homo sapiens [2])	Activity (Homo sapiens [3])	Activity (Homo sapiens [7])	Activity (Homo sapiens [11])	Activity (Homo sapiens [13])	Activity (Homo sapiens [17])	also measured
CCC[C@@H](O)c1c(/C=C/[C@@H](O)[C@@H](O)CCCC(=O)OC)nc(C)n1C	40.3 nM	3.4 nM	4.8 nM	55.8 nM	4.3 nM	3.7 nM	–	–	–	–	0.9%	1.8%	1.6%	1.8%	–	2.2%	1.4%	–
COC(=O)CCC[C@H](O)[C@H](O)/C=C/c1nc(C)n(C)c1[C@H](C)O	27.8 nM	–	–	–	–	–	Not Active	Not Active	Not Active	Not Active	2.4%	3.1%	–	4.5%	–	3.4%	3.5%	IC50 [9]: Not Active
CCC[C@H](O)c1c(/C=C/[C@@H](O)[C@@H](O)CCCC(=O)OC)nc(C)n1C	31.5 nM	6 nM	–	–	0.9 nM	3.6 nM	–	–	Not Active	Not Active	1.3%	1.4%	1.9%	3.2%	1.6%	1.7%	1.4%	–
COC(=O)CCC[C@H](O)[C@H](O)/C=C/c1nc(C)n(C)c1[C@@H](C)O	27.8 nM	3.8 nM	–	–	–	–	Not Active	Not Active	Not Active	Not Active	9.6%	9.7%	8.8%	9.3%	10.4%	8.8%	9.4%	–
